Test results from patent US12122762B2, “Crystal form a of NHE3 inhibitor, preparation method therefor and application thereof” (SHENZHEN RENTAI PHARMATECH LTD., priority 2019, dated 2024).

Key:
Assay type in all cases: physicochemical
[1] = Hygroscopicity study by dynamic vapor sorption (DVS); settings: 25° C.
Experimental: • Model: BRUKER D8 DISCOVER (BRUKER, Germany) • Method: Cu target Ka, voltage: 40 KV, current: 40 mA, test angle: 3-45°, scanning step: 0.02, exposure time: 0.2 S, slit width of light pipe: 1 mm, slit width of detector: 2.7 mm. X-Ray Single Crystal Diffractometer SXRD • Model: BRUKER D8 QUEST (BRUKER, Germany) • Method: Cu target, voltage: 40 KV, current: 30 mA Differential Scanning Calorimeter DSC • Model: TA 250 (TA Instruments, US) • Method: heating at a rate of 10° C./min. Thermal Gravimetric Analysis TGA • Model: TA 550 (TA Instruments, US); • Method: heating at a rate of 10° C./min. Dynamic Vapor Sorption DVS • Model: DVS intrinsic (SMS, British); • Method: 25° C., relative humidity is stepped up at a rate of 10% per step, and the judgment standard is change in moisture content is <0.002% over a 10-minute period. Light Incubator • Model: MGC-100 (Shanghai Yiheng Scientific Instrument Co., Ltd.) Ultrasound Equipment • Model: KQ-3200 (Shanghai Alloy Ultrasonic Equipment Co., Ltd.) Programmable Temperature and Humidity Chamber for Drug Stability • Model: CMA-100C (Shanghai Puhan Precision Equipment Co., Ltd.) […]

[2] = High-temperature stability (60° C.), content by HPLC peak area normalization
Experimental: (§1) Follow tests are performed for the amorphous bulk pharmaceutical chemical of embodiment 1 and the crystal form A prepared in embodiment 2: • (1) Light stability: the test sample is placed in an environment having a temperature of 25° C. and a light condition of 4500 Lux for 5 days and 10 days, respectively, to test the stability of the crystal form. Samples are collected at the same point at 5th and 10th day to measure content by HPLC peak area normalization method. […] Samples are collected at the same point at 5th and 10th day to measure content by HPLC peak area normalization method. […] Samples are collected at the same point at 5th and 10th day to measure content by HPLC peak area normalization method.

[3] = High-humidity stability (75% RH, 40° C.), content by HPLC peak area normalization
Experimental: as §1

[4] = Light stability (25° C., 4500 Lux), content by HPLC peak area normalization
Experimental: as §1

[5] = Hygroscopicity of compound of formula (I) prepared according to CN103819403B; settings: within 10 min under a humidity of RH 45%
From the text: The inventors of the present invention prepared the compound of formula (I) according to the preparation method as described in CN103819403B, and carried out analysis. […] Especially, the prepared compound of formula (I) was found easy to decompose in environment of high temperature or high humidity or under strong lights, causing rapid decrease in the content of active ingredients. […] Therefore, a strict management would be required during use of the compound of formula (I), rendering the compound unsuitable for use as a bulk pharmaceutical chemical.

| Compound | weight increase due to moisture absorption ([1]; RH 0 to RH 90%, RH 10% per step, 10 min per step) [%] | Purity (%) after high-temperature stability test ([2]; 5 days) [%] | Purity (%) after high-temperature stability test ([2]; 10 days) [%] | Purity (%) after high-humidity stability test ([3]; 5 days) [%] | Purity (%) after high-humidity stability test ([3]; 10 days) [%] | Purity (%) after light stability test ([4]; 5 days) [%] | Purity (%) after light stability test ([4]; 10 days) [%] | weight increase because of hygroscopicity [5] | weight change in each step of 10 min ([1]; each RH 10% step of 10 min) |
| --- | --- | --- | --- | --- | --- | --- | --- | --- | --- |
| CN1Cc2c(Cl)cc(Cl)cc2[C@@H](c2cccc(S(=O)(=O)NCCOCCOCCNC(=O)NCCCCNC(=O)NCCOCCOCCNS(=O)(=O)c3cccc([C@@H]4CN(C)Cc5c(Cl)cc(Cl)cc54)c3)c2)C1 [amorphous bulk pharmaceutical chemical] | 7 | 61.62 | 58.98 | 81.63 | 79.78 | 72.54 | 71.99 | – | – |
| CN1Cc2c(Cl)cc(Cl)cc2[C@@H](c2cccc(S(=O)(=O)NCCOCCOCCNC(=O)NCCCCNC(=O)NCCOCCOCCNS(=O)(=O)c3cccc([C@@H]4CN(C)Cc5c(Cl)cc(Cl)cc54)c3)c2)C1 [compound of formula (I)] | – | – | – | – | – | – | – | up to 2% | – |
| CN1Cc2c(Cl)cc(Cl)cc2[C@@H](c2cccc(S(=O)(=O)NCCOCCOCCNC(=O)NCCCCNC(=O)NCCOCCOCCNS(=O)(=O)c3cccc([C@@H]4CN(C)Cc5c(Cl)cc(Cl)cc54)c3)c2)C1 [crystal form A] | – | 98.64 | 98.72 | 98.52 | 98.56 | 91.78 | 89.07 | – | less than 0.02% |
